Reference: paper PMC4830892, “A microarray-based approach to evaluate the functional significance of protein-binding motifs” (Analytical and Bioanalytical Chemistry, 2016)
Non-standard residues stand in square brackets, D forms with d. Residues, ends and D or L forms follow the SMILES beside them. pY = N[C@@H](Cc1ccc(OP(=O)(O)O)cc1)C(=O)O; Ahx = NCCCCCC(=O)O

How the values were obtained:
[1] = target: α-phosphotyrosine antibody (α-pTyr 100); test: Titration of α-pY antibody on peptide microarrays; format: binding; conditions: for Kd: peptide microarray, α-pY antibody 0.06 to 6.66 nM, 3 h at 4 °C, indirect immunofluorescence (Alexa633), bimolecular binding isotherm (Eq. 1), average ± standard deviation, six independent experiments; for α-pY titration curve / binding: result in words, R^2 of 0.8 as cutoff for a binder
Method: (§1) Peptides that correspond to known interaction motifs involved in the formation of protein complexes in T cell signalling were purchased from EMC microcollections (Tübingen, Germany). All peptides carried an extra cysteine residue and a free N-terminus for immobilisation on the microarray substrates and a C-terminal amidation (see Electronic Supplementary Material (ESM), Table S1).
(§2) For generation of microarrays, peptide stock solutions (3 mM) in DMF were diluted 30 times with phosphate buffer (100 mM, pH 8) supplemented with 0.006 % (v/v) Triton X-100. N-Hydroxysuccinimide-preactivated slides served as substrates for immobilisation (Nexterion Slide H, Schott Nexterion/Peq-Lab, Erlangen, Germany) using a Nano-Plotter NP2.0 (GeSIM, Großerkmannshof, Germany), which employs piezo-driven pipetting tips to dispense peptide solutions. Microarray slides comprised 16 subarrays of doublets of each peptide. For each peptide, a volume of 1.2 nl was dispensed at a centre-to-centre spacing of 500 μm. During printing, temperature was maintained at 15 °C and air humidity at 65 %.
(§3) Sixteen incubation chambers with identical subarrays consisting of peptides derived from binding motifs of signalling proteins (see ESM Table S1) were generated by attaching a clip-on frame to the microarray substrate (ProPlate Multiarray System, Grace Biolabs, Molecular Probes, Eugene, OR, USA). The typical incubation volume for the subarrays was 50 μl. Microarrays were either incubated with an α-pY antibody (α-pTyr 100, 9411, Cell Signalling, Frankfurt am Main, Germany) at the indicated concentrations or co-incubated with cell lysate at the indicated concentrations for 3 h at 4 °C. Additionally, in another set of experiments, recombinant GRB2-SH2 was incubated on microarrays alone or co-incubated with cell lysate employing an α-penta HIS antibody (34600, Qiagen, Hilden, Germany) for the detection of His-tagged GRB2-SH2.
(§4) After incubation, microarrays were washed three times with washing buffer (PBS, 0.05 % (w/v) BSA, 0.05 % (w/v) Tween-20). For the detection of signals, microarrays were incubated with a secondary α-mouse antibody conjugated with Alexa633 (A-21050, Invitrogen) at a concentration of 1 μg/ml for 15 min at RT followed by a last washing step with washing buffer. Microarrays were dried with nitrogen and scanned using a ProScanArray (PerkinElmer Life Sciences, Waltham, Massachusetts), and the data were analysed using ArrayPro Analyzer software (Media Cybernetics, Silver Spring, USA) as described before. Final data represented the mean signal intensities corrected for the median of a ring-shaped local background surrounding the respective peptide spot. Titrations with α-pY antibody and GRB2-SH2 were performed to calculate dissociation constants (see below).
The resulting titration curves were fitted with Origin (OriginLab Corporation, v.6.1057, Northampton, USA) using a binding isotherm for a bimolecular interaction (Eq. 1):1 Fabs=Fmaxprot/Kd+prot Fabs represents the intensity of a microarray spot after background correction and [prot] the concentration of the titrated binder. Kd and Fmax were obtained from the fits.
To render this approach quantitative, first the affinities of the α-pY antibody towards the phosphotyrosine motifs of the microarrays were determined. […] The titration curves were fitted with a binding isotherm for a bimolecular interaction (Eq. 1, Fig. 2a, Table 1). In general, a coefficient of determination (R^2) of 0.8 was used as a cutoff in order to score a peptide as a binder. […] Regarding the poly-proline motif (PP) containing peptides present on the microarray, only on the peptide GAB2-509 in five experiments, a titration curve with an R^2 > 0.8 could be generated.

[2] = system: proteins in Jurkat cell lysate (total cellular proteome); test: Competition of α-pY antibody binding with Jurkat cell lysate on peptide microarrays; conditions: for Kd: from EC50 and Kd α-pY by Cheng-Prusoff equation (Eq. 4), ± standard deviation
Method: as §1, §2
Jurkat T cell leukaemia cells were maintained in RPMI 1640 medium (PAN-Biotech, Aisenbach, Germany) supplemented with 10 % foetal calf serum at 37 °C in 5 % CO2. For the preparation of lysates, cells were resuspended in lysis buffer (1 % Triton X-100, 50 mM n-octyl-D-glucopyranoside (Fluka, Taufkirchen, Germany), 20 mM Tris, 1 mM EDTA, 150 mM NaCl, 1 mM Na3VO4, pH 7.5, and complete protease inhibitor cocktail (Roche Applied Science, Mannheim, Germany)). Incubation on ice for 1 h was followed by centrifugation at 20,000×g at 4 °C for 15 min to remove cell debris. Transmembrane proteins were extracted from lipid rafts by using N-octyl-D-glucopyranoside. Protein concentrations were measured by Bradford Assay.
as §3, §4
For determination of EC50 values for competition with cell lysate, curves were fitted according to2 y=y0+Ae^−x/t with y0 as the signal intensity of the α-pY antibody or the recombinant GRB2-SH2 domain without cell lysate, A the amplitude, x the protein concentration in lysate, and t the decay constant. […]

[3] = system: SH2 domain of GRB2 (GRB2-SH2); conditions: Kd values of GRB2-SH2 described in recently published manuscript; ref [14]; cited from earlier work
Text: In contrast, the data points for LATpY191 and SHP1pY564, and SigpY437, ZAPpY319 and CDζpY72/83 were above or below the linear correlation defined by the first four peptides. […] SigpY437, in contrast, is a poor binder for which already low concent ...

| Compound | Kd [1] [nM] | Kd [2] [nM] | affinity for / binding to cellular proteome (in words) ([2]; competition of α-pY with cell lysate, FYB peptides) | binding to GRB2 / GRB2-SH2 (in words) [3] | α-pY titration curve / binding [1] |
| --- | --- | --- | --- | --- | --- |
| CC(C)C[C@H](NC(=O)[C@@H](NC(=O)[C@H](CC(=O)O)NC(=O)[C@H](Cc1ccc(OP(=O)(O)O)cc1)NC(=O)[C@H](CCC(=O)O)NC(=O)[C@H](CCC(=O)O)NC(=O)[C@H](CCCNC(=N)N)NC(=O)[C@H](CCCNC(=N)N)NC(=O)CNC(=O)[C@H](CC(C)C)NC(=O)[C@H](CC(N)=O)NC(=O)[C@H](CC(C)C)NC(=O)[C@H](CCC(=O)O)NC(=O)[C@H](CC(N)=O)NC(=O)[C@H](Cc1ccc(OP(=O)(O)O)cc1)NC(=O)[C@H](CC(C)C)NC(=O)[C@H](CCC(N)=O)NC(=O)[C@H](CC(N)=O)NC(=O)CCCCCNC(=O)[C@@H](N)CS)C(C)C)C(N)=O [CD3ζpY72/83] (H-C[Ahx]NQL[pY]NELNLGRREE[pY]DVL-NH2) | 0.69 ± 0.61 | 25000 ± 27000 |  |  |  |
| CC(C)[C@H](NC(=O)[C@H](CC(=O)O)NC(=O)[C@H](CC(=O)O)NC(=O)[C@H](Cc1ccc(OP(=O)(O)O)cc1)NC(=O)[C@@H](NC(=O)[C@H](CCC(=O)O)NC(=O)[C@H](CCC(N)=O)NC(=O)[C@H](CC(=O)O)NC(=O)[C@H](CC(=O)O)NC(=O)[C@H](CCC(=O)O)NC(=O)[C@@H](N)CS)C(C)C)C(=O)N[C@@H](C)C(=O)N[C@@H](CCC(=O)O)C(=O)N[C@@H](CCC(N)=O)C(=O)N[C@@H](CC(=O)O)C(N)=O [FYBpY595] (H-CEDDQEV[pY]DDVAEQD-NH2) | 0.77 ± 0.28 |  |  |  |  |
| CC[C@H](C)[C@H](NC(=O)CNC(=O)[C@H](CC(=O)O)NC(=O)[C@H](Cc1ccc(OP(=O)(O)O)cc1)NC(=O)[C@@H](NC(=O)[C@H](CC(=O)O)NC(=O)[C@H](CC(=O)O)NC(=O)[C@H](CC(=O)O)NC(=O)[C@@H](N)CS)[C@@H](C)CC)C(=O)N[C@@H](CCC(=O)O)C(=O)N[C@@H](CCC(=O)O)C(=O)N[C@@H](CCC(=O)O)C(=O)N[C@@H](CC(=O)O)C(N)=O [FYBpY625] (H-CDDDI[pY]DGIEEED-NH2) | 0.46 ± 0.15 | 17000 ± 13000 |  |  |  |
| CSCC[C@H](NC(=O)[C@H](CC(=O)O)NC(=O)[C@H](CC(C)C)NC(=O)[C@@H](N)CS)C(=O)NCC(=O)N[C@@H](CC(=O)O)C(=O)N[C@@H](CCC(=O)O)C(=O)N[C@H](C(=O)N[C@@H](Cc1ccc(OP(=O)(O)O)cc1)C(=O)N[C@@H](CC(=O)O)C(=O)N[C@@H](CC(=O)O)C(=O)N[C@H](C(=O)N[C@@H](CC(=O)O)C(=O)N[C@H](C(=O)N[C@@H](CO)C(=O)N[C@@H](CC(=O)O)C(=O)N[C@@H](Cc1ccccc1)C(N)=O)[C@@H](C)O)C(C)C)C(C)C [FYBpY651] (H-CLDMGDEV[pY]DDVDTSDF-NH2) | 0.28 ± 0.09 | 12000 ± 9000 |  |  |  |
| CC[C@H](C)[C@H](NC(=O)[C@H](CC(=O)O)NC(=O)[C@H](CC(=O)O)NC(=O)[C@H](Cc1ccc(OP(=O)(O)O)cc1)NC(=O)[C@@H](NC(=O)[C@H](CCC(=O)O)NC(=O)CNC(=O)[C@H](CC(=O)O)NC(=O)[C@H](CC(N)=O)NC(=O)[C@@H](N)CS)[C@@H](C)CC)C(=O)N[C@@H](C)C(=O)N[C@@H](CC(=O)O)C(=O)NCC(N)=O [FYBpY771] (H-CNDGEI[pY]DDIADG-NH2) | 0.5 ± 0.23 | 5000 ± 1000 | highest affinity of all four FYB peptides |  |  |
| CC(C)C[C@H](NC(=O)[C@H](Cc1ccc(OP(=O)(O)O)cc1)NC(=O)CNC(=O)[C@@H]1CCCN1C(=O)[C@H](CC(N)=O)NC(=O)[C@H](Cc1c[nH]cn1)NC(=O)[C@H](Cc1ccc(O)cc1)NC(=O)[C@H](CC(=O)O)NC(=O)[C@H](CC(=O)O)NC(=O)[C@H](CCC(=O)O)NC(=O)[C@H](CC(=O)O)NC(=O)[C@H](CCC(=O)O)NC(=O)[C@@H](N)CS)C(=O)N[C@H](C(=O)N[C@H](C(=O)N[C@@H](CC(C)C)C(=O)N1CCC[C@H]1C(=O)N[C@@H](CC(=O)O)C(=O)N[C@@H](CO)C(=O)N[C@H](C(=O)N1CCC[C@H]1C(N)=O)[C@@H](C)O)C(C)C)C(C)C [LATpY132] (H-CEDEDDYHNPG[pY]LVVLPDSTP-NH2) | 0.41 ± 0.38 | 11000 ± 13000 |  | good binder |  |
| CC(C)C[C@H](NC(=O)[C@H](CCC(=O)O)NC(=O)[C@H](CCC(N)=O)NC(=O)[C@H](CC(C)C)NC(=O)[C@H](CC(N)=O)NC(=O)[C@H](CCC(=O)O)NC(=O)[C@H](Cc1ccc(OP(=O)(O)O)cc1)NC(=O)[C@H](CC(=O)O)NC(=O)[C@@H]1CCCN1C(=O)[C@H](C)NC(=O)CNC(=O)[C@H](CCC(=O)O)NC(=O)[C@H](CCC(=O)O)NC(=O)[C@H](CCC(=O)O)NC(=O)[C@@H](NC(=O)[C@H](CCC(=O)O)NC(=O)[C@@H](N)CS)C(C)C)C(=O)N[C@@H](CC(N)=O)C(N)=O [LATpY226] (H-CEVEEEGAPD[pY]ENLQELN-NH2) | 0.44 ± 0.27 | 15000 ± 11000 |  | good binder |  |
| CSCC[C@H](NC(=O)[C@@H]1CCCN1C(=O)[C@H](CC(N)=O)NC(=O)[C@H](C)NC(=O)[C@H](CCC(=O)O)NC(=O)[C@@H](NC(=O)[C@H](Cc1ccc(OP(=O)(O)O)cc1)NC(=O)[C@H](Cc1ccccc1)NC(=O)CNC(=O)[C@@H]1CCCN1C(=O)[C@H](CC(N)=O)NC(=O)[C@H](CCCNC(=N)N)NC(=O)CNC(=O)[C@H](CCC(=O)O)NC(=O)[C@@H](N)CS)C(C)C)C(=O)N1CCC[C@H]1C(=O)N[C@H](C(N)=O)[C@@H](C)O [PLCγpY783] (H-CEGRNPGF[pY]VEANPMPT-NH2) | 0.55 ± 0.33 | 7000 ± 2000 |  | good binder |  |
| CC(C)C[C@H](NC(=O)[C@H](CCC(=O)O)NC(=O)[C@H](CCC(=O)O)NC(=O)[C@@H]1CCCN1C(=O)[C@H](CC(=O)O)NC(=O)[C@H](CO)NC(=O)[C@H](Cc1ccc(OP(=O)(O)O)cc1)NC(=O)[C@@H]1CCCN1C(=O)[C@H](CO)NC(=O)[C@H](CCC(=O)O)NC(=O)[C@H](Cc1ccc(O)cc1)NC(=O)[C@@H](NC(=O)[C@@H](N)CS)C(C)C)C(=O)N[C@@H](CCCCN)C(=O)N[C@@H](CC(=O)O)C(N)=O [ZAPpY319] (H-CVYESP[pY]SDPEELKD-NH2) | 0.6 ± 0.46 | 26000 ± 32000 |  |  |  |
| CGNKGRSGPLPPVPLGIA-NH2 [WAS334] |  |  |  |  | no titration curves could be generated |
| CLDIQDKPPAPPMRNT-NH2 [PAK6] |  |  |  |  | no titration curves could be generated |
